Results on 24 molecules are retold here after US7582645B2, “Pyrimidine derivatives for treatment of hyperproliferative disorders” (Bayer Pharmaceuticals Corporation, priority 2003, dated 2009).

The structures appear in SMILES notation. A value given as a limit tells only on which side of the number the result lay.

For the first experiment, the system named is HCT116 cells. Briefly: HCT116 cytotoxic activity assay (Alamar Blue, 72 h). The class given is cell-based. To be noted: Homo sapiens, HCT-116, 72 h compound exposure, greater than 500 nM but less than or equal to 2 μM. As to the method:
Representative compounds of this invention were tested for cytotoxicity using the above-described assay procedure with the following results: […]
The term IC50 denotes the midpoint of a concentration-inhibition curve. Take `Cc1cc(Oc2ccc(Nc3cc(-c4ccc(Oc5ccccc5)cc4)nc(N)n3)cc2)ccn1` [Example 304, N4*-{4-[(2-methylpyridin-4-yl)oxy]phenyl}-6-(4-phenoxyphenyl) pyrimidine-2,4-diamine]: the IC50 fell in the range of 500 to 2000 nM. Regarding `Cc1cc(Oc2ccc(Nc3cc(-c4cccc(O)c4)nc(N)n3)cc2)ccn1` [Example 306, 3-[2-amino-6-({4-[(2-methylpyridin-4-yl)oxy]phenyl}amino)pyrimidin-4-yl]phenol], the IC50 is 500 to 2000 nM. For the molecule `CC(=O)Nc1ccc(-c2cc(Nc3ccc(Oc4ccnc(C)c4)cc3)nc(N)n2)cc1` [Example 308, N-{4-[2-amino-6-({4-[(2-methylpyridin-4-yl)oxy]phenyl}amino)pyrimidin-4-yl]phenyl} acetamide], the IC50 lay within 500 to 2000 nM. `Cc1cc(Oc2ccc(Nc3cc(-c4ccccc4OC(F)(F)F)nc(N)n3)cc2)ccn1` [Example 309, N4-{4-[(2-methylpyridin-4-yl)oxy]phenyl}-6-[2-(trifluoromethoxy)phenyl]pyrimidine-2,4-diamine] registered an IC50 of 500 to 2000 nM. On to `COc1ccc(-c2cc(Nc3ccc(Oc4ccnc(C)c4)cc3)nc(N)n2)cc1OC` [Example 319, 6-(3,4-dimethoxyphenyl)-N4*-{4-[(2-methylpyridin-4-yl)oxy]phenyl} pyrimidine-2,4-diamine], for which the IC50 is 500 to 2000 nM. The same measure, in the same setting: as for `Cc1cc(Oc2ccc(Nc3cc(-c4ccccc4N)nc(N)n3)cc2)ccn1` [Example 322, 6-(2-aminophenyl)-N4*-{4-[(2-methylpyridin-4-yl)oxy]phenyl} pyrimidine-2,4-diamine], the figure is 500 to 2000 nM; as for `Cc1cc(Oc2ccc(Nc3cc(-c4cccc(OC(C)C)c4)nc(N)n3)cc2)ccn1` [Example 324, 6-(3-isopropoxyphenyl)-N4*-{4-[(2-methylpyridin-4-yl)oxy]phenyl} pyrimidine-2,4-diamine], 500 to 2000 nM. `Cc1cc(Oc2ccc(Nc3cc(-c4cccc(OC(F)(F)F)c4)nc(N)n3)cc2)ccn1` [Example 325, N4*-{4-[(2-methylpyridin-4-yl)oxy]phenyl}-6-[3-(trifluoromethoxy)phenyl]pyrimidine-2,4-diamine] returned a half-inhibitory concentration (IC50) of 500 to 2000 nM.

The experiment is the same for the next values; noted with them: Homo sapiens, HCT-116, 72 h compound exposure, greater than 2 μM.
`NC(=O)c1cc(Oc2cccc(Nc3cc(-c4ccc(Cl)c(Cl)c4)nc(N)n3)c2)ccn1` [Example 303, 4-(3-{[2-amino-6-(3,4-dichlorophenyl)pyrimidin-4-yl]amino}phenoxy)pyridine-2-carboxamide] had an IC50 above 2000 nM. On to `Cc1cc(Oc2ccc(Nc3cc(-c4ccc(OC(F)(F)F)cc4)nc(N)n3)cc2)ccn1` [Example 307, N4*-{4-[(2-methylpyridin-4-yl)oxy]phenyl}-6-[4-(trifluoromethoxy)phenyl]pyrimidine-2,4-diamine], for which the IC50 is above 2000 nM. Same read-out and setting: for `Cc1cc(Oc2ccc(Nc3cc(-c4cccc(C(F)(F)F)c4)nc(N)n3)cc2)ccn1` [Example 314, N4*-{4-[(2-methylpyridin-4-yl)oxy]phenyl}-6-[3-(trifluoromethyl)phenyl] pyrimidine-2,4-diamine] the value was above 2000 nM.

Staying with this experiment, now noted: Homo sapiens, HCT-116, 72 h compound exposure, less than or equal to 500 nM.
Molecule `Cc1ccc(-c2cc(Nc3cccc(Oc4ccnc(C(N)=O)c4)c3)nc(N)n2)cc1N` [Example 302, 4-(3-{[2-amino-6-(3-amino-4-methylphenyl)pyrimidin-4-yl]amino}phenoxy)pyridine-2-carboxamide] showed a 50% inhibitory concentration (IC50) of at most 500 nM. Molecule `Cc1cc(Oc2ccc(Nc3cc(-c4cccc(N(C)C)c4)nc(N)n3)cc2)ccn1` [Example 305, 6-[3-(dimethylamino)phenyl]-N4*- {4-[(2-methylpyridin-4-yl)oxy]phenyl}pyrimidine-2,4-diamine] showed an IC50 of at most 500 nM. Still for that read-out and setting: as for `Cc1cc(Oc2ccc(Nc3cc(-c4ccc(O)cc4)nc(N)n3)cc2)ccn1` [Example 310, 4-[2-amino-6-({4-[(2-methylpyridin-4-yl)oxy]phenyl}amino)pyrimidin-4-yl]phenol], the figure is at most 500 nM. Still for that read-out and setting: as for `COc1ccc(-c2cc(Nc3ccc(Oc4ccnc(C)c4)cc3)nc(N)n2)cn1` [Example 312, 6-(6-methoxypyridin-3-yl)-N4*-{4-[(2-methylpyridin-4-yl)oxy]phenyl} pyrimidine-2,4-diamine], the figure is at most 500 nM; as for `Cc1cc(Oc2ccc(Nc3cc(-c4ccc(N)cc4)nc(N)n3)cc2)ccn1` [Example 313, 6-(4-aminophenyl)-N4*-{4-[(2-methylpyridin-4-yl)oxy]phenyl} pyrimidine-2,4-diamine], at most 500 nM; as for `Cc1cc(Oc2ccc(Nc3cc(-c4cccc(F)c4)nc(N)n3)cc2)ccn1` [Example 315, 6-(3-fluorophenyl)-N4*-{4-[(2-methylpyridin-4-yl)oxy]phenyl} pyrimidine-2,4-diamine], at most 500 nM. Same read-out and setting: as for `COc1cccc(-c2cc(Nc3ccc(Oc4ccnc(C)c4)cc3)nc(N)n2)c1` [Example 316, 6-(3-methoxyphenyl)-N4*-{4-[(2-methylpyridin-4-yl)oxy]phenyl} pyrimidine-2,4-diamine], the figure is at most 500 nM; as for `CCc1ccc(-c2cc(Nc3ccc(Oc4ccnc(C)c4)cc3)nc(N)n2)cc1` [Example 317, 6-(4-ethylphenyl)-N4*-{4-[(2-methylpyridin-4-yl)oxy]phenyl} pyrimidine-2,4-diamine], at most 500 nM.

For the molecule `Cc1cc(Oc2ccc(Nc3cc(-c4ccc(N(C)C)cc4)nc(N)n3)cc2)ccn1` [Example 318, 6-[4-(dimethylamino)phenyl]-N4*- {4-[(2-methylpyridin-4-yl)oxy]phenyl}pyrimidine-2,4-diamine], the IC50 was at most 500 nM. As for `Cc1cc(Oc2ccc(Nc3cc(-c4cccc(N)c4)nc(N)n3)cc2)ccn1` [Example 320, 6-(3-aminophenyl)-N4*-{4-[(2-methylpyridin-4-yl)oxy]phenyl} pyrimidine-2,4-diamine], the IC50 was at most 500 nM. For `Cc1cc(Oc2ccc(Nc3cc(-c4ccoc4)nc(N)n3)cc2)ccn1` [Example 321, 6-(3-furyl)-N4*-{4-[(2-methylpyridin-4-yl)oxy]phenyl} pyrimidine-2,4-diamine], the IC50 was at most 500 nM. `Cc1cc(Oc2ccc(Nc3cc(-c4ccc(C)c(N)c4)nc(N)n3)cc2)ccn1` [Example 323, 6-(3-amino-4-methylphenyl)-N4*-{4-[(2-methylpyridin-4-yl)oxy]phenyl} pyrimidine-2,4-diamine] came in with an IC50 of at most 500 nM. Still for that read-out and setting: for `Nc1nc(Nc2ccc(Oc3ccnc(Cl)c3)cc2)cc(-c2ccc(OS(N)(=O)=O)cc2)n1` [Example 332, 4-[2-amino-6-({4-[(2-chloropyridin-4-yl)oxy]phenyl}amino)pyrimidin-4-yl]phenyl sulfamate] the value was at most 500 nM.
